Species on record: Rattus norvegicus
Assay: Open TG-GATES - Regimen: Single
Type: toxicity, organism-based, Sprague-Dawley
Parameters: regimen Single, gender Male, age 6 weeks
Details: in vivo, ip, route intraperitoneal injection; for TP / gamma-GTP / ALP / ALT / AST / BUN / CRE / Ca / DBIL / GLC / K / LDH / RALB / TBIL / TC / TG / IP / Na / PL: tissue Plasma; for KIDNEY_L / KIDNEY_R / KIDNEY_TOTAL: tissue Kidney; for LIVER: tissue Liver
[1] = 0.3 mg/kg, 24 h, dose 300 ug/Kg, dose level Middle
[2] = 3 mg/kg, 3 h, dose 3000 ug/Kg, dose level High
[3] = 3 mg/kg, 3 h, tissue Blood, dose 3000 ug/Kg, dose level High
[4] = 3 mg/kg, 6 h, dose 3000 ug/Kg, dose level High
[5] = 3 mg/kg, 6 h, tissue Blood, dose 3000 ug/Kg, dose level High
[6] = 3 mg/kg, 9 h, dose 3000 ug/Kg, dose level High
[7] = 3 mg/kg, 9 h, tissue Blood, dose 3000 ug/Kg, dose level High
[8] = 3 mg/kg, 24 h, dose 3000 ug/Kg, dose level High
[9] = 3 mg/kg, 24 h, tissue Blood, dose 3000 ug/Kg, dose level High

What does the source list for LPS?
TP [1]: 5.9 g/dL; gamma-GTP [1]: 1.7 IU/L; TERMINAL_BW [2]: 197.5 g; Bas [3]: 0.3%; Eos [3]: 0%; Fbg [3]: 186.3 mg/dL; Ht [3]: 40.6%; Lym [3]: 62.3%; MCV [3]: 66.6 fL; Mono [3]: 2%; Neu [3]: 34.7%; PT [3]: 17.1 s; Plat [3]: 83.4 x10_4/uL; RBC [3]: 608.7 x10_4/ul; Ret [3]: 9.7%; WBC [3]: 42.6 x10_2/uL; KIDNEY_L [2]: 0.9 g; KIDNEY_R [2]: 0.9 g; KIDNEY_TOTAL [2]: 1.9 g; LIVER [2]: 9.2 g; ALP [2]: 1326.7 IU/L; ALT [2]: 48 IU/L; AST [2]: 122.3 IU/L; BUN [2]: 15 mg/dL; CRE [2]: 0.2 mg/dL; Ca [2]: 10 mg/dL; DBIL [2]: 0.0233 mg/dL; GLC [2]: 148.7 mg/dL; K [2]: 4.1 meq/L; LDH [2]: 229.3 IU/L; RALB [2]: 2.2 g/dL; TBIL [2]: 0.0667 mg/dL; TC [2]: 78.3 mg/dL; TG [2]: 143 mg/dL; TP [2]: 4.8 g/dL; gamma-GTP [2]: 1.7 IU/L; TERMINAL_BW [4]: 192.5 g; APTT [5]: 25.9 s; Bas [5]: 0%; Eos [5]: 1%; Fbg [5]: 158.3 mg/dL; Lym [5]: 65.3%; MCHC [5]: 32.8%; MCV [5]: 64.5 fL; Mono [5]: 1%; Neu [5]: 31.7%; PT [5]: 18.2 s; Plat [5]: 47.4 x10_4/uL; RBC [5]: 627.3 x10_4/ul; Ret [5]: 8.9%; WBC [5]: 21.1 x10_2/uL; KIDNEY_L [4]: 1 g; KIDNEY_R [4]: 0.9 g; KIDNEY_TOTAL [4]: 1.9 g; LIVER [4]: 7.6 g; ALP [4]: 1321.7 IU/L; ALT [4]: 378.7 IU/L; AST [4]: 499.3 IU/L; BUN [4]: 23.3 mg/dL; CRE [4]: 0.2 mg/dL; Ca [4]: 9.5 mg/dL; DBIL [4]: 0.2 mg/dL; GLC [4]: 124.3 mg/dL; IP [4]: 10.4 mg/dL; K [4]: 4.4 meq/L; LDH [4]: 2239.3 IU/L; Na [4]: 140.3 meq/L; PL [4]: 156.7 mg/dL; RALB [4]: 2.2 g/dL; TBIL [4]: 0.3 mg/dL; TC [4]: 90 mg/dL; TG [4]: 87 mg/dL; TP [4]: 4.9 g/dL; gamma-GTP [4]: 2.7 IU/L; TERMINAL_BW [6]: 188.4 g; APTT [7]: 25 s; Bas [7]: 0%; Eos [7]: 1%; Fbg [7]: 180.7 mg/dL; Ht [7]: 41.4%; Lym [7]: 56%; MCHC [7]: 32.7%; MCV [7]: 64.7 fL; Mono [7]: 1%; Neu [7]: 42%; PT [7]: 17.9 s; Plat [7]: 27.3 x10_4/uL; RBC [7]: 641 x10_4/ul; Ret [7]: 8.6%; WBC [7]: 48.1 x10_2/uL; KIDNEY_L [6]: 0.9 g; KIDNEY_R [6]: 0.9 g; KIDNEY_TOTAL [6]: 1.9 g; LIVER [6]: 7.4 g; ALP [6]: 1439.3 IU/L; ALT [6]: 320.3 IU/L; AST [6]: 534.3 IU/L; BUN [6]: 29.7 mg/dL; CRE [6]: 0.2 mg/dL; Ca [6]: 9.5 mg/dL; DBIL [6]: 0.2 mg/dL; GLC [6]: 116 mg/dL; K [6]: 4.6 meq/L; LDH [6]: 1843.3 IU/L; Na [6]: 138.3 meq/L; PL [6]: 169.7 mg/dL; RALB [6]: 2.1 g/dL; TBIL [6]: 0.4 mg/dL; TC [6]: 115.7 mg/dL; TG [6]: 117.7 mg/dL; TP [6]: 4.8 g/dL; gamma-GTP [6]: 4 IU/L; TERMINAL_BW [8]: 191.8 g; APTT [9]: 23.8 s; Bas [9]: 0.7%; Eos [9]: 1%; Fbg [9]: 336 mg/dL; Hb [9]: 12.1 g/dL; Ht [9]: 37.4%; Lym [9]: 55.3%; MCHC [9]: 32.4%; MCV [9]: 64 fL; Mono [9]: 2%; Neu [9]: 40.7%; PT [9]: 15.3 s; Plat [9]: 41.9 x10_4/uL; RBC [9]: 583.3 x10_4/ul; Ret [9]: 7.7%; WBC [9]: 99.6 x10_2/uL; KIDNEY_L [8]: 0.9 g; KIDNEY_R [8]: 1 g; KIDNEY_TOTAL [8]: 1.9 g; LIVER [8]: 8.3 g; ALP [8]: 1299 IU/L; ALT [8]: 330.3 IU/L; AST [8]: 740.3 IU/L; BUN [8]: 31.7 mg/dL; CRE [8]: 0.2 mg/dL; DBIL [8]: 0.06 mg/dL; GLC [8]: 139 mg/dL; IP [8]: 9.4 mg/dL; K [8]: 4.4 meq/L; LDH [8]: 271.7 IU/L; RALB [8]: 2.2 g/dL; TBIL [8]: 0.2 mg/dL; TC [8]: 93.3 mg/dL; TG [8]: 45.3 mg/dL; TP [8]: 4.9 g/dL; gamma-GTP [8]: 6.7 IU/L

Reference: ChEMBL document CHEMBL3885861, “Open TG-GATES”
